Test results from ChEMBL document CHEMBL1201862, “PubChem BioAssay data set” (2004).
Calls of active or inactive are those of the source.

Tests used:
[1] = molecular target: Protein Rev (Human immunodeficiency virus type 1 group M subtype B (isolate WMJ22)(HIV-1), UniProt P05866); test: inhibitors of Rev protein–RRE RNA complex – biochemical, protein-RNA interaction, dose response (AID 842); set-up: species or system Human immunodeficiency virus 1
[2] = test system: Streptococcus sp. 'group A'; test: Streptococcus pyogenes SK(-)GAS viability under kanamycin – luminescence, BacTiterGlo, confirmation, counter-screen for streptokinase expression inhibitor project, dose response (AID 1900); type: functional, organism-based
[3] = test system: Streptococcus; test: Luminescence Microorganism-Based Dose Response Follow up to Identify Compounds Cytotoxic to Streptococcus. [Related pubchem assays: 1677 (Project Summary), 1915, 1914, 1902 (Retest at Dose), 1900 (Counter Screen), 1662 (Primary HTS)]; type: functional, organism-based
[4] = molecular target: T1, Streptokinase A (Streptococcus pyogenes serotype M1, UniProt P10520); test: viability-normalized secreted streptokinase activity reduction – plasminogen activation absorbance, OD405, dose response (AID 1914); type: functional, Streptococcus pyogenes M1 GAS;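 further: secreted streptokinase activity via plasminogen activation per viability signal from cell pellet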
T1 sequence (P10520 whole entry): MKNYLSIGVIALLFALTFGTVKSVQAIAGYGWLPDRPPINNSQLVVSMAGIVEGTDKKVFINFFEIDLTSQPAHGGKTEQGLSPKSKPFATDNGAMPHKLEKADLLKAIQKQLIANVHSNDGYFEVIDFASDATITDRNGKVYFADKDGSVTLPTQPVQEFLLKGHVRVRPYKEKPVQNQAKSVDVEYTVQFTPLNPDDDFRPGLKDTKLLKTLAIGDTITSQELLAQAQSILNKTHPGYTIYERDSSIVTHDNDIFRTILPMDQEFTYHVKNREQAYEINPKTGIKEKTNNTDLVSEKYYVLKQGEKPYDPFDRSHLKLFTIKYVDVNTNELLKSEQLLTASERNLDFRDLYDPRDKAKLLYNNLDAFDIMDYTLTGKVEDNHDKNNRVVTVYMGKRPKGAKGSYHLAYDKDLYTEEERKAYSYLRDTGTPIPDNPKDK

[5] = test system: Streptococcus; test: GAS UMAA2166 growth inhibition – luminescence, BacTiterGlo, counter-screen for streptokinase expression inhibitor project, dose response (AID 1915); type: functional, organism-based;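 further: potency for reduction of bacterial viability or growth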
[6] = molecular target: Dual specificity protein phosphatase 3 (Homo sapiens, UniProt P51452); test: inhibition constants for human DUSP3 – biochemical, colorimetric, SAR follow-up (AID 2004)
[7] = molecular target: Photoreceptor-specific nuclear receptor (Homo sapiens, UniProt Q9Y5X4); type: functional;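 further: potency for compounds that break the NR2E3 corepressor complex and count as activators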
[8] = molecular target: Peroxisome proliferator-activated receptor gamma/Nuclear receptor corepressor 2 (Homo sapiens, UniProt P37231+Q9Y618); type: functional
[9] = test system: HeLa; test: viability loss in HeLa cells – cell-based, 24 h, cherry-picked samples, cytotoxicity control, dose response (AID 504726); type: functional; conditions: Homo sapiens
[10] = molecular target: T2, ORF 73 (Human herpesvirus 8, UniProt O40947); test: KSHV LANA DNA-binding disruption – biochemical, fluorescence polarization, cherry-picked samples, dose response (AID 504725); set-up: species or system Human gammaherpesvirus 8;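 further: fluorescence polarization of a labeled DNA duplex reporting LANA DNA binding; potency is for inhibitors that block LANA binding to the DNA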
T2 sequence (O40947 whole entry): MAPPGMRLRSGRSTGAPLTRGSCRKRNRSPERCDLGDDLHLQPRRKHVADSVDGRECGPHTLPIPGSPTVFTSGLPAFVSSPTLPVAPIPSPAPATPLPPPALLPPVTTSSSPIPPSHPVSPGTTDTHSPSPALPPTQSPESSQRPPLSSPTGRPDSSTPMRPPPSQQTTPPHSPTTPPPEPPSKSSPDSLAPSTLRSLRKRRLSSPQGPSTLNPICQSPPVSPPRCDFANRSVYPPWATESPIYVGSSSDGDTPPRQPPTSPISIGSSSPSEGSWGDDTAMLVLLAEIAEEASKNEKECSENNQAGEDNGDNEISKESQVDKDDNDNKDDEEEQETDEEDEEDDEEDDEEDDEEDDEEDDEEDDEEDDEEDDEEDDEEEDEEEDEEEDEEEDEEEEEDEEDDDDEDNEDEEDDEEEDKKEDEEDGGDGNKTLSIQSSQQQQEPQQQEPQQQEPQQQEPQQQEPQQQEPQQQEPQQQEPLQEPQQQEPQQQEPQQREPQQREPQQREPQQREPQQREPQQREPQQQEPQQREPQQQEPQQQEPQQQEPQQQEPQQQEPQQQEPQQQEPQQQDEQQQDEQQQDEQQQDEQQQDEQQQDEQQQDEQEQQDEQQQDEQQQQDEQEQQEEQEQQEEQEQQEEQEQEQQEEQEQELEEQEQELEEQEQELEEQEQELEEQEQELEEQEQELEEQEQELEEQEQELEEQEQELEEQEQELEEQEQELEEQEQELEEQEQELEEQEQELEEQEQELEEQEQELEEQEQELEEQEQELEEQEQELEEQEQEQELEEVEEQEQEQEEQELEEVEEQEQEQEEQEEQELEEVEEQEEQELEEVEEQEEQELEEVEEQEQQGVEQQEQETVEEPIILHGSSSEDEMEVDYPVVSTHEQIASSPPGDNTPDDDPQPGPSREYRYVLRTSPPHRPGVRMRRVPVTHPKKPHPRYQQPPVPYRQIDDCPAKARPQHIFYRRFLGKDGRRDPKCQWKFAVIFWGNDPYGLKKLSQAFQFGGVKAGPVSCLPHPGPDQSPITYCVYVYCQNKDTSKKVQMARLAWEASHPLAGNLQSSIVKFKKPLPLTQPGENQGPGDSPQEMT

[11] = test system: CHO; test: CHO cell viability loss, potency – luminescence, cytotoxicity control for TLR9-MyD88 binding inhibitor project, dose response (AID 588339); type: functional, cell-based, hamster; conditions: Cricetulus griseus;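 further: CHO cells stably coexpressing TLR9 and MyD88 fusions from primary screen; compound exposure lasted 48 hours before viability readout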
[12] = molecular target: T3, Caspase-6 (Homo sapiens, UniProt P55212); test: inhibition of CASP6 peptide cleavage – biochemical, VEID-R110 fluorescence, cherry-pick, dose response (AID 720632)
T3 sequence (P55212 whole entry): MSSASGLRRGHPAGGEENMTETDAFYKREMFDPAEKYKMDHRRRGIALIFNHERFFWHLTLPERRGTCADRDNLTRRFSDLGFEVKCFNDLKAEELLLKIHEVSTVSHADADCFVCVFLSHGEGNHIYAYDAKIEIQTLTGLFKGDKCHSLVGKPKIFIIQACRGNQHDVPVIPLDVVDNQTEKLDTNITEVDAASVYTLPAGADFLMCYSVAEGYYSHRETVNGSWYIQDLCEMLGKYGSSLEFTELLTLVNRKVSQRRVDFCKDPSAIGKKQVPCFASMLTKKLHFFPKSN

[13] = luciferase reporter signal reduction – luminescence, H4-C neuroglioblastoma cells, dose response (AID 2458); type: functional, cell-based;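 further: H4 neuroglioblastoma cells stably carrying a luciferase reporter gene fusion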
[14] = cells; type: functional, cell-based
[15] = Luminescence Cell-Based Dose Response HTS to Identify Inhibitors of 5'UTR Stem-Loop Driven Prion Protein mRNA Translation in H4 Neuroglioblastoma Cells. [Related pubchem assays: 1827 (Project Summary), 1813 (Primary HTS)]; type: functional
[16] = alpha-synuclein stem-loop luciferase translation blockers – H4 neuroglioma cells, luminescence, confirmation (AID 1988); type: functional, cell-based
[17] = Luminescence-based dose response cell-based high throughput screening assay for cytotoxic compounds using the IEC-6 intestinal epithelial cell line. [Related pubchem assays: 1858 (Summary AID.), 1825 (Counterscreen.), 1907 (Confirmation screen.)]; type: functional
[18] = alpha-synuclein stem-loop translation blockers – luminescence, H4 neuroglioblastoma cells, dose confirmation, confirmation (AID 2454); type: functional, cell-based;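 further: H4 neuroglioblastoma cells carrying an alpha-synuclein 5'UTR luciferase reporter; potency for inhibition of the luciferase signal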
[19] = molecular target: Scavenger receptor class B member 1 (Mus musculus, UniProt Q61009); test: mouse SR-BI DiI-HDL uptake blockers – ldlA[mSR-BI] cells, fluorescence, cherry pick, dose response (AID 493194); type: functional, cell-based;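 further: cellular uptake of fluorescent DiI-labeled HDL measured as cell fluorescence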
[20] = HEK-293T viability loss after treatment – luminescence, T-cell screen hits, cytotoxicity control for TCR NF-kB inhibitor project, dose response (AID 489026); type: functional, cell-based;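 further: cells exposed to compound about 14 hours before the viability readout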
[21] = reduction of Shn3 3'UTR-driven luciferase in osteoblasts – cell-based, Clone20 osteoblasts, firefly luciferase, cherry-picked, dose response (AID 624132); type: functional;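 further: firefly luciferase luminescence from reporter carrying the Shn3 3'UTR in osteoblasts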
[22] = non-specific 3'UTR reporter inhibition in Clone20-Shn3RL – cell-based, Renilla luciferase, cherry-picked, counter-screen for Shn3 inhibitor project, dose response (AID 624133); type: functional
[23] = molecular target: Lysosomal acid glucosylceramidase (Homo sapiens, UniProt P04062); test: Dose response cell-based high throughput screening assay to identify enhancers of beta-glucosidase activity. [Related pubchem assays: 784 ]; type: functional
[24] = molecular target: T4, Neuropeptides B/W receptor type 1 (Homo sapiens, UniProt P48145); test: Fluorescence-based dose response cell-based high throughput screening assay to identify antagonists of the G-protein coupled receptor 7 (GPR7). [Related pubchem assays: 1952 (Screening assay (GPR7 antagonists).), 1880 (Summary AID.)]; type: functional
T4 sequence (P48145 whole entry): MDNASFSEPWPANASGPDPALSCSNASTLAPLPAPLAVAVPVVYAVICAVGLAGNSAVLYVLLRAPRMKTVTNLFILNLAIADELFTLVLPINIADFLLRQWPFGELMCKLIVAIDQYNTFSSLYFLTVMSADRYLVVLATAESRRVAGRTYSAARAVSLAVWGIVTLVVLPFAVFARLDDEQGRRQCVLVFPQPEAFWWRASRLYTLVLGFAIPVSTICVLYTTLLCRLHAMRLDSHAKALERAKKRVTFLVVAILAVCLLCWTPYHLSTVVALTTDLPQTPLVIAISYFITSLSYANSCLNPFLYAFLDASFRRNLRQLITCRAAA

[25] = molecular target: Melanin-concentrating hormone receptor 1 (Homo sapiens, UniProt Q99705); test: Fluorescence-based counterscreen for antagonists of the G-protein coupled receptor 7 (GPR7): cell-based high throughput dose response assay to identify antagonists of the melanin-concentrating hormone receptor 1 (MCHR1).; type: functional
[26] = molecular target: Cytochrome P450 2C9 (Homo sapiens, UniProt P11712); conditions: Potency
[27] = molecular target: T5, G-protein coupled receptor 35 (Homo sapiens, UniProt Q9HC97); test: SAR analysis of Antagonists of the GPR35 Receptor using an Image-Based Assay - Set 5. [Related pubchem assays (depositor defined):AID2058, AID2079]; type: functional
[28] = molecular target: T5, G-protein coupled receptor 35; test: SAR Analysis for the identification of Selective Antagonists of ERK1/2 Activity in GPR35-Overexpressing U2OS Cells - Set 2. [Related pubchem assays (depositor defined):AID2058, AID2079]; type: functional, cell-based
[29] = molecular target: G-protein coupled receptor 55 (Homo sapiens, UniProt Q9Y2T6); test: SAR Analysis of Selective Antagonists of GPR55 using an Image-Based Assay - Set 3. [Related pubchem assays (depositor defined):AID2058, AID2079]; type: functional
Sequence of G-protein coupled receptor 55 (Q9Y2T6 whole entry): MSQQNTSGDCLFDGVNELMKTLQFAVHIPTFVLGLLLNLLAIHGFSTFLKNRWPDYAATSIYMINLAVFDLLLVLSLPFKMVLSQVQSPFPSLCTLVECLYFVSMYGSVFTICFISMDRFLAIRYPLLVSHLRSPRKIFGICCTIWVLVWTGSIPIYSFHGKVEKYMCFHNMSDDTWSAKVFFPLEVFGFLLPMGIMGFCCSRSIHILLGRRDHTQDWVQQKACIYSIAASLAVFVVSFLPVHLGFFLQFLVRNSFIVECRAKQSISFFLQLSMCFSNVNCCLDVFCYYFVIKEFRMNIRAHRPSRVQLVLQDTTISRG

T5 sequence (Q9HC97 whole entry): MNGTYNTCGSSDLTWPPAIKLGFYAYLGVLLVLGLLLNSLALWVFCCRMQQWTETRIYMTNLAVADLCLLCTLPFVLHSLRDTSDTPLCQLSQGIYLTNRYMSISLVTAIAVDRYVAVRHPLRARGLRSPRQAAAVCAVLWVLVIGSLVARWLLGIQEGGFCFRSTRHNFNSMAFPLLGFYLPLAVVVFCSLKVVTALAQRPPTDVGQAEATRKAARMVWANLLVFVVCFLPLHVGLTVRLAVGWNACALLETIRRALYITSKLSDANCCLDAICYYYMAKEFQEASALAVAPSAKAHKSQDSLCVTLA
Sequence of Protein Rev (P05866 whole entry): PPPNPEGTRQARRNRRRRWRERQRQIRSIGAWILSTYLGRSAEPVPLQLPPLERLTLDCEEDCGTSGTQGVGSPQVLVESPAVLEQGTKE
Sequence of Lysosomal acid glucosylceramidase (P04062 whole entry): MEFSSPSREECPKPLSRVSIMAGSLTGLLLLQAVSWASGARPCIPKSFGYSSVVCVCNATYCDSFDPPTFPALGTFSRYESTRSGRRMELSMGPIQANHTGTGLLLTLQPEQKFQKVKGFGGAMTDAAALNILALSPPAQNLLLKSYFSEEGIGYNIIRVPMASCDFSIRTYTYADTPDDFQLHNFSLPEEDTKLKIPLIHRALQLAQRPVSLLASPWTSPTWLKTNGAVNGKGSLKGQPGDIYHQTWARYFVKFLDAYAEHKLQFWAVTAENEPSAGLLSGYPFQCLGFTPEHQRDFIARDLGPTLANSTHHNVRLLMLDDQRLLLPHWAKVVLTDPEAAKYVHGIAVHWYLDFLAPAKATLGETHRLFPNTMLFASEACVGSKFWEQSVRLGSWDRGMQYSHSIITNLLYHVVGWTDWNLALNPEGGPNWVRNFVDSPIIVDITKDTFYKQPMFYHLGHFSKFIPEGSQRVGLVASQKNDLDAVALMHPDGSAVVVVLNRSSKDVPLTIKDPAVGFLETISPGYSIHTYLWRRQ
Sequence of Peroxisome proliferator-activated receptor gamma/Nuclear receptor corepressor 2 (P37231 whole entry): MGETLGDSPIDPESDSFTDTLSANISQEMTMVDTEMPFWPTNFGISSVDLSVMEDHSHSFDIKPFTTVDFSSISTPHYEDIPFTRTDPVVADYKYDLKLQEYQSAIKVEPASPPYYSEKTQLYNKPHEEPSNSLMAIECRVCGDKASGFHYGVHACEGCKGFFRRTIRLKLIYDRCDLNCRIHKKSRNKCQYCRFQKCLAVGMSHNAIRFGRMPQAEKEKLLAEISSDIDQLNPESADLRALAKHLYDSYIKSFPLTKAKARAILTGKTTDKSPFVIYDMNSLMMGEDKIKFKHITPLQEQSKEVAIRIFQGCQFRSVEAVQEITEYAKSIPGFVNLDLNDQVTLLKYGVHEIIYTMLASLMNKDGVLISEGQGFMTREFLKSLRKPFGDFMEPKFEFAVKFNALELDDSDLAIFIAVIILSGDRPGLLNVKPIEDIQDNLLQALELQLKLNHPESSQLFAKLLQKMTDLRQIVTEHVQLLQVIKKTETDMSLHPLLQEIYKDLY
Sequence of Peroxisome proliferator-activated receptor gamma/Nuclear receptor corepressor 2 (Q9Y618 whole entry): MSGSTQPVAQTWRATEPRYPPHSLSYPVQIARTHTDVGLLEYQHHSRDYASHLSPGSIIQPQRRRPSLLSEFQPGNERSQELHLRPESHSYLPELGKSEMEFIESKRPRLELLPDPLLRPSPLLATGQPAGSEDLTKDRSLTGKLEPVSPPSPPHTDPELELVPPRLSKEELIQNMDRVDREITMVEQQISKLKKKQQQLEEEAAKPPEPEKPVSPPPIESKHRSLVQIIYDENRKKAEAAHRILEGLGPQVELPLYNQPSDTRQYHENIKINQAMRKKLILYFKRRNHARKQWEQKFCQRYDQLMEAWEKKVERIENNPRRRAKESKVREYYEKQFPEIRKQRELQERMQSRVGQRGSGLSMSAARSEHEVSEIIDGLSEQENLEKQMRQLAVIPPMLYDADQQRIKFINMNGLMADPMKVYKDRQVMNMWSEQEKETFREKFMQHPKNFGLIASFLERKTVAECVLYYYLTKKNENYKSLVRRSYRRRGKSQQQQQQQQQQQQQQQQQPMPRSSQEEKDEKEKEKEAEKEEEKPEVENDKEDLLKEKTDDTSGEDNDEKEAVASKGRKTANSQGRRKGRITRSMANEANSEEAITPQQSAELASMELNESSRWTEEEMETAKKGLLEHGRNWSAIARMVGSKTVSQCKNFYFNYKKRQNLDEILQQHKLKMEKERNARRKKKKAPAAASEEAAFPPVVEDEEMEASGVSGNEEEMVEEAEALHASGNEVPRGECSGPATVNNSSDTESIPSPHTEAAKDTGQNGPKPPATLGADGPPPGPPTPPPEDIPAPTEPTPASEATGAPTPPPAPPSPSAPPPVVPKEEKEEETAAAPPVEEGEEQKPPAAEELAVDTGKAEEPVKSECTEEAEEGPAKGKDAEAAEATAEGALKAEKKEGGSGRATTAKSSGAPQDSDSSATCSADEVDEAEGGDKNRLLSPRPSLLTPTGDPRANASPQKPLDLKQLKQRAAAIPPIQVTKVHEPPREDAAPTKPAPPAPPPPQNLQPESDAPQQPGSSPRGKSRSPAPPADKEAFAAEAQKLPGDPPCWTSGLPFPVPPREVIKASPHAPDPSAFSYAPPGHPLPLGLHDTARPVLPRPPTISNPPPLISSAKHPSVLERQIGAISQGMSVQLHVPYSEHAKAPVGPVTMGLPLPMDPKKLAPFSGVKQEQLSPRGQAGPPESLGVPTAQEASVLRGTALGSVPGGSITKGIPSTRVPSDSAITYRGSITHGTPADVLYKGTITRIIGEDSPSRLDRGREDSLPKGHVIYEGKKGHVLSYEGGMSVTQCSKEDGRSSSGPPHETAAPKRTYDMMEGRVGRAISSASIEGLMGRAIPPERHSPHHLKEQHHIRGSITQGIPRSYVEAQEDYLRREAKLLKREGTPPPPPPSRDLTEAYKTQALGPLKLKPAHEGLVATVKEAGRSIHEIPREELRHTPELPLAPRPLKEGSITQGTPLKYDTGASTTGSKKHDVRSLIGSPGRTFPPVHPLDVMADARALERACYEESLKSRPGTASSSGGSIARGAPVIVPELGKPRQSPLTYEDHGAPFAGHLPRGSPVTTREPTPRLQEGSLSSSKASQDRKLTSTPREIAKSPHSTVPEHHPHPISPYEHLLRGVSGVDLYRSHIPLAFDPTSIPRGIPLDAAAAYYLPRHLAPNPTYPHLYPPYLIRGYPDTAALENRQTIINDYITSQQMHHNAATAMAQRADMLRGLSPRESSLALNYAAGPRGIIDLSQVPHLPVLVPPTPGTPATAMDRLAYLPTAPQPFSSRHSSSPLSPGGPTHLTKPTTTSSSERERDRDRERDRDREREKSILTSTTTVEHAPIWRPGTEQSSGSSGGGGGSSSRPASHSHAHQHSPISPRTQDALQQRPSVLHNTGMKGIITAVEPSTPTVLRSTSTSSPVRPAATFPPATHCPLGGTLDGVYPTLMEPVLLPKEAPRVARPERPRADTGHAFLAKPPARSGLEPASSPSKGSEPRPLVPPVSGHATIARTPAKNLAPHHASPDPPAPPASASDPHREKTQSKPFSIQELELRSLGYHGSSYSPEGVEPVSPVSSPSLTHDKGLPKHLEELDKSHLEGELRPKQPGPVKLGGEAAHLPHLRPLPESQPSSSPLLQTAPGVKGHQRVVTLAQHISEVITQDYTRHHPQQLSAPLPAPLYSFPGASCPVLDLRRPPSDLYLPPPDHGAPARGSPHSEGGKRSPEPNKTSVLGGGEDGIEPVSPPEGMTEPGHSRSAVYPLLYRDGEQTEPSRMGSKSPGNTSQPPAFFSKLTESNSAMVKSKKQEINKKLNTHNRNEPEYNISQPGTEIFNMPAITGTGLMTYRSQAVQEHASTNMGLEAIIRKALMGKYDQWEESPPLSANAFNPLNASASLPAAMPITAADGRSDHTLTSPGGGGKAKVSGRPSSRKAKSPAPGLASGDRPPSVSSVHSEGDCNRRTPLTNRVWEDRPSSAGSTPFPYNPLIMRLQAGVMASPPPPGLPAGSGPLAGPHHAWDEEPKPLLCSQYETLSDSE
Sequence of Scavenger receptor class B member 1 (Q61009 whole entry): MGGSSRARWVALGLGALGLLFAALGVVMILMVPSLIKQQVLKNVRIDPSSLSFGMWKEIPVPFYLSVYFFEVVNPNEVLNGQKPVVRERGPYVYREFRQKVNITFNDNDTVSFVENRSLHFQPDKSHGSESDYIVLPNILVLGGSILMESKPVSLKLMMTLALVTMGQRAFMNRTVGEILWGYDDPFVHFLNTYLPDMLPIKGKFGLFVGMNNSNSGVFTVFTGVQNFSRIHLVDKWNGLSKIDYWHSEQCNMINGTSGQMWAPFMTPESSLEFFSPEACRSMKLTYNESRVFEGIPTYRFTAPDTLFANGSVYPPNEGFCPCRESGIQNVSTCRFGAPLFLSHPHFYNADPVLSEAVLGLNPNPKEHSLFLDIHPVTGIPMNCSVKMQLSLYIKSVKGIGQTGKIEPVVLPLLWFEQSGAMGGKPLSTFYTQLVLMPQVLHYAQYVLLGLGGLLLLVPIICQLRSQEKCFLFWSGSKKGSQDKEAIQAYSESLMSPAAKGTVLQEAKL
Sequence of Dual specificity protein phosphatase 3 (P51452 whole entry): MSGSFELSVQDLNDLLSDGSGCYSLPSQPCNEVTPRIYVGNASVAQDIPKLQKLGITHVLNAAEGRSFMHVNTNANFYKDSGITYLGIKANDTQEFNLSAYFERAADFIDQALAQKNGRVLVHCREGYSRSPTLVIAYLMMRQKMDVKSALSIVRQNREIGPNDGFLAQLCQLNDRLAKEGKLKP

With `CNCCCOc1ccc(C(C)(C)c2ccccc2)cc1` the IC50 [1] was > 79.4 µM (not active).

With `Cc1ccc(SCC(=O)N2c3ccccc3Sc3ccccc32)cc1` the EC50 [2] was > 150 µM (not active), the EC50 [3] was > 500 µM (not active) and the EC50 [4] was 10.9 µM (active). The EC50 [5] was > 150 µM (not active).

For `CN1C(=O)C(=Cc2ccc(N3CCCC3)c([N+](=O)[O-])c2)C(=O)N(C)C1=O`, the Ki [6] was 24.5 µM (inactive).

For `CCOc1ncccc1C(=O)Nc1ccc(C(=O)Nc2ccc(OC)cc2)cc1`, the IC50 [7] was > 39.8 µM (not active) and the IC50 [8] was 3.53 µM (active).

For `Cc1ccc(C(=O)O)cc1N1C(=O)c2cccc3c([N+](=O)[O-])ccc(c23)C1=O`, the AC50 [9] was 67.1 µM (active), the AC50 [10] was 35 µM (active) and the IC50 [11] was 22.4 µM (inactive). For the same molecule, the AC50 [12] was 10.3 µM (active).

In the case of `CCCCCOC(=O)c1[nH]c2c(c1C)C(=O)CC(c1ccco1)C2` (centres undefined), the EC50 [13] is reported as 0.198 µM (active), the EC50 [14] is reported as 0.179 µM (active) and the EC50 [15] is reported as 9.81 µM (active). For the same molecule, the EC50 [16] was < 0.1 µM (active), the IC50 [17] was 0.101 µM (active) and the EC50 [18] was 0.133 µM (active). The AC50 [19] was 33.3 µM (active), the IC50 [20] was > 80 µM (inactive) and the AC50 [21] was 1.49 µM (active). The AC50 [22] was 3.96 µM (active).

In the case of `COc1ccc(S(=O)(=O)NCC(=O)N(CC(=O)NCC2CCCO2)c2ccccc2C)cc1` (centres undefined), the EC50 [23] is reported as > 50 µM (not active).

With `Cc1ccccc1CN1C(=O)c2ccccc2Sc2ccc(C(=O)NCCCN3CCOCC3)cc21` the IC50 [24] was 8.23 µM (active) and the IC50 [25] was 12.1 µM (not active).

With `CC(C)C[C@@H](CC(=O)N[C@H](CC(=O)N[C@@H]1CCNC[C@H]1C(=O)N[C@H](CC(=O)N[C@@H](CCC(=O)O)CC(=O)O)CC(C)C)C(C)C)NC(=O)[C@@H]1CNCC[C@H]1N` the AC50 [26] was 39.8 µM (inconclusive).

In the case of `COC(=O)c1cnn(-c2ccc(F)cc2F)c1/C=N/NC(=S)Nc1ccc(Cl)cc1`, the IC50 [27] is reported as 0.171 µM (active), the IC50 [28] is reported as 1.69 µM (active) and the IC50 [29] is reported as > 32 µM (inactive).
